The text below walks through data of patent publication US20070179143A1 (priority 2003, published 2007).

Data set [1] has as its system HCT-15. Briefly: Cytotoxicity test to cancer cell lines (SRB method), HCT-15. The conditions noted are these: Homo sapiens, HCT-15, 48 h, read-out: Cytotoxicity ED50 HCT15.
Description: (§4) Cytotoxicity to A549 (Korea Research Institute of Chemical Technology), SK-OV-3 (Korea Research Institute of Chemical Technology), SK-MEL-2 (Korea Research Institute of Chemical Technology), HCT-15 (Korea Research Institute of Chemical Technology) and MCF7 (Korean Cell Line Bank, Seoul National University School of medicine) cells was measured by Sulforhodamin-B (SRB) method (1989, National Cancer Institute (NCI)) which was developed for the measurement of in vitro anticancer activity of a drug. Cells were separated using 0.25% trypsin-EDTA solution, leading to the preparation of a cell suspension by 5×10^318 2×10^4 cells/well. Then, the suspension was distributed into a 96 well plate by 100 μl/well, which was cultured in a 37° C., 5% CO2 incubator for 24 hours. Compounds prepared in examples of the present invention were used as a sample. Precisely, the compound was dissolved in dimethylsulfoxide and diluted with RPMI 1640 medium before being used as a sample. The final concentration of the sample used varied ranging 1 μM˜0.00001 μM. The medium was removed from the 96 well plate and then diluted sample solution was added by 100 μl/well, followed by further culture in a 37° C., 5% CO2 incubator for 48 hours. Tz (time zero) plate was collected from the point of adding the sample. Upon completing the culture, the medium was removed from each well along with Tz plate, then 10% trichloroacetic acid (TCA) was added by 100 μl/well. The plate was left at 4° C. for 1 hour to let cells be fixed on the floor of the plate. After cells were fixed completely, the plate was washed with water 5-6 times to remove the remaining trichloroacetic acid solution completely and moisture was completely dried at room temperature. 0.4% Sulforhodamine-B was dissolved in 1% acetic acid solution to prepare a staining solution. Cells were stained for 30 minutes with a dye added by 100 μl to each well of the completely dried plate. Then, the plate was washed with 1% acetic acid solution 5-6 times to remove sulforhodamine-B remained uncombined with cells. Then, the plate was dried at room temperature. 10 mM Tris solution was added by 100 μ/well thereto to dissolve the dye, and optical density (OD) was measured at 520 nm with a micro plate reader.
(§5) ED50 (concentration that inhibits cancer cell growth 50%, 5.0% effective dose, nM/ml) of the sample to cancer cell was calculated as follows. OD value at the point of beginning the culture with the sample was determined as Tz (time zero) value. OD value of a well to be cultured without the sample was determined as a control value (C). OD value of a well pretreated with the sample was determined as experimental value (T). After calculating Tz, C and T, cytotoxicity of the sample was measured by the below <Mathematical Formula 1>. T≦Tz, (T−Tz)/(C−Tz)×100 T>Tz, (T−Tz)/Tz×10,0 <Mathematical Formula 1>
(§6) ED50, the concentration that can inhibit cancer cell growth by 50%, was calculated by using a regression analysis of lotus program based on the degree of cytotoxicity obtained by the <Mathematical Formula 1>.
Data set [2] relates to SK-OV-3. Briefly: Cytotoxicity test to cancer cell lines (SRB method), SK-OV-3. The format is cell-based. The conditions noted are these: Homo sapiens, SK-OV-3, 48 h, read-out: Cytotoxicity ED50 SK-OV-3. (In general: The SRB assay estimates cell density from bound dye.)
For data set [3], the system named is SK-MEL-2. Briefly: Cytotoxicity test to cancer cell lines (SRB method), SK-MEL-2. The class given is cell-based. As to conditions: Homo sapiens, SK-MEL-2, 48 h, read-out: Cytotoxicity ED50 SK-MEL-2.
The subject of data set [4] is A549. Briefly: Cytotoxicity test to cancer cell lines (SRB method), A549. The conditions noted are these: Homo sapiens, A549, 48 h, read-out: Cytotoxicity ED50 A549.
Description: as §4, §5, §6
Data set [5] can be described thus: in vivo. As to conditions: ICR, mouse, in vivo. The method, then: (§1) 5-week-old ICR mice having the weight of 25-35 g (SPF, SLC Co. Japan) were used as test animals. A pair of female and male of the mice was given for the test of each compound. Group T2, T3, T4 and T5 were arranged (10 animals per group) for the test of acute toxicity of the compound prepared in the Example 12. […] Control group (T1) was administered with only a solvent without the compound of the Example 12.
(§2) For comparison, colchicine was injected in the test animals by the same method as described in the above. The group treated with colchicine was composed of 6 mice.
(§3) Taxol produced by Bristol Myers Sqibb Co. was also used for comparison, and the injection and the test of acute toxicity were performed by the same method as described in the above.

The test system of data set [6] is ICR mice. Nature of the data set: in vivo. As to conditions: for Death Total: ICR mice, 7 days, deaths/animals; for Test Day (Death) 2: deaths on day 2; for Test Day (Death) 5: deaths on day 5; for Test Day (Death) 1: deaths on day 1. The method, then: as §1, §2, §3
In data set [7] the test system is MCF7. Nature of the data set: Cytotoxicity test to cancer cell lines (SRB method), MCF7. As to conditions: read-out: Cytotoxicity ED50 MCF-7, MCF-7, 48 hours.
Description: as §4, §5, §6
The subject of data set [8] is human lung cancer cell line NCI-H460. Briefly: Inhibiting effect on tumor growth, NCI-H460 xenografted nude mice.
Description: Samples for the experiment were stored in a refrigerator all the time. […] The prepared sample is subject to be precipitated, so that tip sonication was performed right before the administration to disperse it well.
7 week-old female S.P.F. BALB/c nude mice, provided by Charles River Co., Japan, were used as test animals. The test animals were adapted in a Hepa-filter room over a week before the test. The temperature was 21±2° C., humidity was 55±5% and 12-hour light and dark cycle was automatically repeated in that lab. Solid feed (Cheiluedang) was sterilized by radioactive rays and drinking water was also sterilized by autoclave. Feed and water were taken by the animal freely. Cancer cell line used in this experiment was NCI-H460 (human lung tumor cell line) provided by Korea Research Institute of Bioscience and Biotechnology.
The tumor cell line, stored in liquid nitrogen, was thawed and cultured in a 37° C., 5% CO2 incubator for a required time. Upon completing the culture, all the cells were recovered and cell concentration of the culture fluid was adjusted using PBS to 3×10^7 cells/ml. The adjusted cell culture solution was injected hypodermically into armpit between right shoulder girdle and chest wall by 0.3 ml per mouse. From the next day of grafting, NCI-H460 xenografted nude mice were administered intraperitoneal everyday with the sample solution by 0.2 ml/20 g of weight, once a day.
After the grafting of tumor cells, the volume of a tumor in each individual was measured in three dimensions by using a vernier caliper, which was represented in the below <Mathematical Formula 2>. Tumor volume=(length×width×height)/2 <Mathematical Formula 2>
Body weight changes of animal were measured three times a week. Each xenografted nude mouse was sacrificed to separate a tumor, which was then weighed.
Data set [9] in a line: Body weight change of NCI-H460 xenografted nude mice. The class given is in vivo, BALB/c nude mouse.
Where [10] appears, read: 10 mg/kg intraperitoneal once a day, Day 11.
Setting [11] is: 10 mg/kg intraperitoneal once a day, Day 14.
Where [12] appears, read: 10 mg/kg intraperitoneal once a day.
[13] abbreviates: 2.5 mg/kg intraperitoneal once a day.

Broadly, the LD50 is the dose at which mortality reaches 50%. A high value points to lower toxicity. Turning to `COc1cc2c(c(OC)c1OC)-c1ccc(OC)c(=O)cc1[C@@H](NC(C)=O)CC2` [Colchicine], the EC50 in data set [1] came out at 9 nM; in [2], 18 nM; in [3], 6 nM; in data set [4], 21 nM. The compound further had an LD50 at 7 days in data set [5] (both) of 2 mg/kg. Also, the “Death Total” value in [6] (0.5 mg/kg) was 0/6; in [6] (1.0 mg/kg), 0/6; in data set [6] (2.0 mg/kg), 3/6; in [6] (5.0 mg/kg), 5/5. Further, the “Test Day (Death) 3” value in data set [6] (2.0 mg/kg, deaths on day 3) came out at 1. Also, the “Test Day (Death) 6” value in data set [6] (2.0 mg/kg, deaths on day 6) is 2. Besides, in [6] (5.0 mg/kg), the “Test Day (Death) 2” value is given as 3. In addition, the “Test Day (Death) 4” value in data set [6] (5.0 mg/kg, deaths on day 4) was found to be 1. The “Test Day (Death) 5” value in data set [6] (5.0 mg/kg) came to 1.

On to `CCOc1cc2c(c(OC)c1OC)-c1ccc(SC)c(=O)cc1[C@@H](NC(=O)c1cccc(CO[N+](=O)[O-])c1F)CC2` [Example 8, N-[(7S)-3-ethoxy-1,2-dimethoxy-10-methylsulfanyl-9-oxo-5,6,7,9-tetrahydro-benzo[a]heptalen-7-yl]-2-fluoro-3-nitrooxymethyl-benzamide], for which the EC50 in [1] stood at 0.03 nM. The EC50 in data set [7] amounted to 0.01 nM. Also, in data set [2], the EC50 was found to be 0.04 nM. Besides, the “inhibition rate of the tumor volume” value in data set [8] (10 mg/kg) stood at 85%. Besides, in data set [8] (10 mg/kg intraperitoneal once a day, Day 0), the “Tumor volume Day 0” value is on record as 0.0 ± 0.0. The “Tumor volume Day 4” value in [8] (10 mg/kg intraperitoneal once a day, Day 4) is on record as 18.0 ± 3.7. In addition, the “Tumor volume Day 7” value in data set [8] (10 mg/kg intraperitoneal once a day, Day 7) is reported as 25.2 ± 12.8. For the same compound, in data set [8] (10 mg/kg intraperitoneal once a day, Day 9), the “Tumor volume Day 9” value came to 29.6 ± 13.8. Further, in [8] (setting [10]), the “Tumor volume Day 11” value is 35.2 ± 14.0. Moreover, in [8] (setting [11]), the “Tumor Weight Day 14” value is 143.4 ± 57.8 mg and the “Tumor volume Day 14” value came out at 44.5 ± 15.0. For the same compound, the “size and weight of a tumor (in words)” value in data set [8] (comparing to solvent only (V.C-1, V.C-2) or positive control (taxol, adriamycin)) is on record as “remarkably decreased”. For the same compound, in data set [3], the EC50 is 0.01 nM. Also, in [9] (setting [12]), the “Body weight Change Day 1” value was 100.0 ± 0.0%, the “Body weight Change Day 3” value was 103.5 ± 2.2%, the “Body weight Change Day 7” value worked out at 99.8 ± 4.3 % and the “Body weight Change Day 9” value is recorded as 92.3 ± 4.1 %. In data set [9] (setting [10]), the “Body weight Change Day 11” value is given as 89.3 ± 3.7 %. Besides, the “Body weight Change Day 14” value in [9] (setting [11]) is recorded as 89.4 ± 5.3 %. Further, the “decrease of the weight of the mouse” value in data set [9] (comparing to solvent only or positive control) is “about 10%”. In data set [4], the EC50 worked out at 0.02 nM.

With `CC(=O)O[C@H]1C(=O)[C@@]2(C)[C@H]([C@H](OC(=O)c3ccccc3)[C@]3(O)C[C@H](OC(=O)[C@H](O)[C@@H](NC(=O)c4ccccc4)c4ccccc4)C(C)=C1C3(C)C)[C@]1(OC(C)=O)CO[C@@H]1C[C@@H]2O` [Paclitaxel, reference compound], the EC50 was determined as 0.1 nM in data set [1]; 0.9 nM in [7]; 1.2 nM in data set [2]; 0.1 nM in data set [3]; 0.3 nM in data set [4]. Further, the “Body weight Change Day 1” value in [9] (setting [13]) is given as 100.0 ± 0.0%. In addition, the “Body weight Change Day 3” value in [9] (setting [13]) was 106.0 ± 1.5%. Also, in data set [9] (setting [13]), the “Body weight Change Day 7” value was 99.2 ± 4.0 %. In addition, in data set [9] (setting [13]), the “Body weight Change Day 9” value was found to be 97.1 ± 0%. In data set [5] (iv), the LD50 was in the range of 9 to 13 mg/kg. The “Death Total” value is 0/5 in data set [6] (4.0 mg/kg); 1/5 in data set [6] (6.0 mg/kg); 2/5 in [6] (9.0 mg/kg); 4/5 in data set [6] (13.0 mg/kg); 5/5 in data set [6] (20.0 mg/kg). In addition, the “Test Day (Death) 2” value is given as 1 in data set [6] (6.0 mg/kg) and 2 in [6] (13.0 mg/kg). In addition, the “Test Day (Death) 5” value in [6] (9.0 mg/kg) is 2. The “Test Day (Death) 1” value is recorded as 2 in [6] (13.0 mg/kg) and 5 in [6] (20.0 mg/kg).
